One data set relates to cereal. The data set is described as follows: Herbicidal post-emergence action with use of safeners, container trials with cereal in a greenhouse (other cereal crop plants). The class given is in vivo. Conditions: 10 days after application. The procedure:
(§1) 1. Herbicidal Post-Emergence Action • Seeds of monocotyledonous and dicotyledonous weed and crop plants are placed in sandy loam in wood fibre pots or in plastic pots, covered with soil and cultivated in a greenhouse, during the vegetation period also outdoors outside of the greenhouse, under good growth conditions. 2 to 3 weeks after sowing, the test plants are treated at one- to three-leaf stage. The test compounds, formulated as wettable powders (WP) or liquid (EC) are, at a water application rate of 300 l/ha (converted), with wetting agent (0.2 to 0.3%) added, sprayed at various dosages onto the plants and the surface of the soil. 3 to 4 weeks after treatment of the test plants, the effect of the preparations is rated visually in comparison to untreated controls (herbicidal activity in percent: 100% activity=the plants have died, 0% activity=like control plants).
(§2) Use of Safeners: • If it is additionally to be tested as to whether safeners can improve the plant compatibility of test substances in the case of crop plants, the following options are used for applying the safeners: • seeds of the crop plants are, before sowing, dressed with the safener substance (the amount of safener stated in percent, based on the weight of the seed) • before application of the test substances, the crop plants are sprayed with the safener at a certain application rate per hectare (usually 1 day before the application of the test substances) • the safener is applied together with the test substance as a tank mix (the amount of safener stated in g/ha or as a ratio, based on the herbicide). • Container trials with cereal in a greenhouse • mefenpyr 1 day prior to herbicide application

Data set [1] deals with green peach aphid (Myzus persicaei). In words: Myzus persicae test (MYZUPE) with ammonium salts and/or penetrants. It is filed as in vivo. Conditions: for % efficacy after 6 days +AMS: +AMS (ammonium sulphate) 1000 ppm; for % efficacy after 6 days +RME: +RME (rapeseed oil methyl ester) 1000 ppm; for % efficacy after 6 days +RME + AMS: each 1000 ppm. The procedure: Myzus persicae Test (MYZUPE)
Solvent: 7 parts by weight of dimethylformamide
(§3) Emulsifier: 2 parts by weight of alkylaryl polyglycol ether
(§4) To produce a suitable preparation of active compound, 1 part by weight of active compound is mixed with the stated amounts of solvents and emulsifier, and the concentrate is diluted with emulsifier-containing water to the desired concentration. For the required application of ammonium salts, penetrants or ammonium salts and penetrants, these are in each case added with a pipette after dilution of the respective finished solution of the preparation at a concentration of 1000 ppm.
Paprika plants (Capsicum annuum) which are heavily infested by the green peach aphid (Myzus persicaei) are treated by being sprayed with the preparation of active compound of the desired concentration.
After the desired period of time, the kill in % is determined. 100% means that all animals have been killed; 0% means that none of the animals have been killed.

Data set [2] concerns cotton aphid (Aphis gossypii). The data set is described as follows: Aphis gossypii test (APHIGO) with ammonium salts and/or penetrants. It is filed as in vivo. To be noted: for % efficacy after 6 days +AMS: +AMS (ammonium sulphate) 1000 ppm; for % efficacy after 6 days +RME: +RME (rapeseed oil methyl ester) 1000 ppm; for % efficacy after 6 days +RME + AMS: each 1000 ppm. On the procedure:
Aphis gossypii Test (APHIGO)
Solvents: 7 parts by weight of dimethylformamide
as §3, §4
Cotton leaves (Gossypium hirsutum) which are heavily infested by the cotton aphid (Aphis gossypii) are sprayed with an active compound preparation of the desired concentration.
After the desired period of time, the kill in % is determined. 100% means that all aphids have been killed; 0% means that none of the aphids have been killed.

The next data set relates to Summer wheat. The data set is described as follows: Herbicidal post-emergence action with use of safeners, container trials with cereal in a greenhouse. The class given is in vivo. To be noted: 28 days after application. On the procedure:
as §1, §2

Data set [3] is described as follows: Determination of the logP values by HPLC on a reverse-phase column (C 18). It is filed as physicochemical. On the procedure:
Determination of the logP Values
The logP values given in the table were determined in accordance with EEC Directive 79/831 Annex V.A8 by HPLC (high performance liquid chromatography) on a reverse-phase column (C 18). Temperature: 55° C.
Mobile phases for the determination in the acidic range (pH 3.4):
Mobile phase A: acetonitrile+1 ml of formic acid/liter. Mobile phase B: water+0.9 ml of formic acid/liter.
Gradient: from 10% mobile phase A/90% mobile phase B to 95% mobile phase A/5% mobile phase B over 4.25 min.
Calibration was carried out using unbranched alkan-2-ones (having 3 to 16 carbon atoms) with known logP values (determination of the logP values by the retention times using linear interpolation between two successive alkanones). The lambda max values were determined in the maxima of the chromatographic signals using the UV spectra from 200 nm to 400 nm.

Where [4] appears, read: HPLC on a reverse-phase column (C 18), separated α/β isomers.

For the compound `COc1cc(C)cc(Cl)c1C1=C(O)C2(CCC3(CCCO3)CC2)NC1=O` (mixture of isomers) [Example I-1-a-13], the “Summer barley observed (%)” value in the data set on cereal (12.5 g of a.i./ha) came out at 20%; in the data set on cereal (25 g of a.i./ha), 20%; with cereal (50 g of a.i./ha), 30%.

`Cc1cc(C)c(C2=C(O)C3(CCC4(CCCO4)CC3)NC2=O)c(C)c1` (mixture of isomers) [Example I-1-a-4]: in data set [1] (0.8 ppm), the “% efficacy after 6 days +AMS” value is listed as 0%, the “% efficacy after 6 days +RME” value came to 60%, the “% efficacy after 6 days +RME + AMS” value is on record as 99% and the “% efficacy after 6 days without additive” value came out at 10%. In data set [1] (4 ppm), the “% efficacy after 6 days +AMS” value was 80%, the “% efficacy after 6 days +RME” value was 90%, the “% efficacy after 6 days +RME + AMS” value was 98% and the “% efficacy after 6 days without additive” value is given as 75%. For the same compound, in data set [2] (0.8 ppm), the “% efficacy after 6 days +AMS” value was determined as 0%, the “% efficacy after 6 days +RME” value is 15%, the “% efficacy after 6 days +RME + AMS” value is 45% and the “% efficacy after 6 days without additive” value came to 10%. Also, in data set [2] (4 ppm), the “% efficacy after 6 days +AMS” value came to 75%, the “% efficacy after 6 days +RME” value was 75%, the “% efficacy after 6 days +RME + AMS” value is 80% and the “% efficacy after 6 days without additive” value is on record as 60%.

As to `Cc1cc(Cl)cc(C)c1C1=C(O)C2(CCC3(CCCO3)CC2)NC1=O` (mixture of isomers) [Example I-1-a-6], in data set [2] (20 ppm), the “% efficacy after 6 days +AMS” value is given as 5%, the “% efficacy after 6 days +RME” value is recorded as 60%, the “% efficacy after 6 days +RME + AMS” value worked out at 95% and the “% efficacy after 6 days without additive” value was determined as 35%.

For the compound `Cc1cc(Br)cc(C)c1C1=C(O)C2(CCC3(CCCO3)CC2)NC1=O` (mixture of isomers) [Example I-1-a-8], in data set [1] (0.8 ppm), the “% efficacy after 6 days +AMS” value is listed as 0%, the “% efficacy after 6 days +RME” value came to 20%, the “% efficacy after 6 days +RME + AMS” value turned out to be 99% and the “% efficacy after 6 days without additive” value was determined as 0%. Besides, in data set [1] (4 ppm), the “% efficacy after 6 days +AMS” value amounted to 98%, the “% efficacy after 6 days +RME” value is reported as 99%, the “% efficacy after 6 days +RME + AMS” value is 100% and the “% efficacy after 6 days without additive” value was determined as 45%.

Consider `CCc1cc(Cl)cc(OC)c1C1=C(O)C2(CCC3(CCCO3)CC2)NC1=O` (mixture of isomers) [Example I-1-a-11], for which the “Summer wheat observed (%)” value is reported as 65% in the data set with Summer wheat (12.5 g of a.i./ha), 70% in the data set with Summer wheat (25 g of a.i./ha), 80% with Summer wheat (50 g of a.i./ha) and 95% in the data set on Summer wheat (100 g of a.i./ha).

On to `CCc1cc(Br)cc(C)c1C1=C(O)C2(CCC3(CCCO3)CC2)OC1=O` (single isomer, unassigned) [Example I-2-a-6], for which the “log P*” value in data set [3] (setting [4]) came out at 3.44.

On to `Cc1ccc(-c2ccc(Cl)cc2)cc1C1=C(O)C2(CCC3(CCCO3)CC2)OC1=O` (stereo not drawn) [Example I-2-a-24], for which the “log P*” value in data set [3] (setting [4]) came to 3.32.

For `CCc1cc(Br)cc(Cl)c1C1=C(O)C2(CCC3(CCCO3)CC2)OC1=O` (single isomer, unassigned) [Example I-2-a-36], the “log P*” value in data set [3] (setting [4]) turned out to be 2.77.

For `COc1cc(C)cc(C)c1C1=C(O)C2(CCC3(CCCO3)CC2)OC1=O` (single isomer, unassigned) [Example I-2-a-10], the “log P*” value in data set [3] (setting [4]) is given as 2.28.

As to `Cc1cc(C)c(C2=C(O)C3(CCC4(CCCO4)CC3)OC2=O)cc1C` (single isomer, unassigned) [Example I-2-a-49], in data set [3] (setting [4]), the “log P*” value was 2.54.

In the case of `Cc1ccc(-c2ccc(F)cc2)c(C)c1C1=C(O)C2(CCC3(CCCO3)CC2)OC1=O` (stereo not drawn) [Example I-2-a-47], the “log P*” value in data set [3] (setting [4]) was 3.20.

For `Cc1cc(C2=C(O)C3(CCC4(CCCO4)CC3)OC2=O)c(C)cc1Br` (single isomer, unassigned) [Example I-2-a-31], the “log P*” value in data set [3] (setting [4]) was found to be 2.77.

Turning to `Cc1ccc(-c2ccc(F)cc2)c(C)c1C1=C(O)C2(CCC3(CCCO3)CC2)OC1=O` (stereo not drawn) [Example I-2-a-46], the “log P*” value in data set [3] (setting [4]) turned out to be 3.69.

`COc1cc(C)cc(C)c1C1=C(O)C2(CCC3(CCCO3)CC2)OC1=O` (single isomer, unassigned) [Example I-2-a-11]: the “log P*” value in data set [3] (setting [4]) is reported as 2.66.

As to `Cc1cc(C)c(-c2ccc(Cl)cc2)c(C)c1C1=C(O)C2(CCC3(CCCO3)CC2)OC1=O` (single isomer, unassigned) [Example I-2-a-43], the “log P*” value in data set [3] (setting [4]) is on record as 4.32.

For the compound `COc1cccc(C)c1C1=C(O)C2(CCC3(CCCO3)CC2)OC1=O` (single isomer, unassigned) [Example I-2-a-35], in data set [3] (setting [4]), the “log P*” value was determined as 2.42.

Turning to `Cc1ccc(C)c(C2=C(O)C3(CCC4(CCCO4)CC3)OC2=O)c1` (single isomer, unassigned) [Example I-2-a-3], the “log P*” value in data set [3] (setting [4]) is 2.29.

For `CCc1cc(C)cc(CC)c1C1=C(O)C2(CCC3(CCCO3)CC2)OC1=O` (single isomer, unassigned) [Example I-2-a-16], the “log P*” value in data set [3] (setting [4]) is reported as 2.99.

`COc1cc(C)cc(C)c1C1=C(OC(=O)C(C)C)[C@]2(CC[C@@]3(CCCO3)CC2)OC1=O` [Example I-2-b-1]: the chromatographic logP in data set [3] (reverse-phase HPLC column (C 18), HPLC, reverse-phase C 18, acidic range (pH 3.4), 55° C., read-out: log P) came out at 4.12.

`Cc1ccc(-c2ccc(Cl)cc2)c(C)c1C1=C(OC(=O)C(C)(C)C)C2(CCC3(CCCO3)CC2)OC1=O` (stereo not drawn) [Example I-2-b-16]: in data set [3] (compounds of formula (I-2-b)), the “log P*” value is recorded as 6.09.

Regarding `O=C1OC2(CCC3(CCCO3)CC2)C(O)=C1c1cc(-c2ccc(F)cc2)ccc1Cl` (stereo not drawn) [Example I-2-a-50], the “log P*” value in data set [3] (setting [4]) turned out to be 2.91.

With `Cc1ccc(-c2ccc(Cl)cc2)c(C)c1C1=C(O)C2(CCC3(CCCO3)CC2)OC1=O` (stereo not drawn) [Example I-2-a-19], the “log P*” value in data set [3] (setting [4]) is listed as 4.06.

Turning to `Cc1ccc(-c2ccc(Cl)cc2)cc1C1=C(OC(=O)C(C)C)C2(CCC3(CCCO3)CC2)OC1=O` (stereo not drawn) [1-2-b-11], the “log P*” value in data set [3] (compounds of formula (I-2-b)) was 5.86.

Regarding `CCc1cc(Cl)cc(C)c1C1=C(O)C2(CCC3(CCCO3)CC2)OC1=O` (single isomer, unassigned) [Example I-2-a-45], in data set [3] (setting [4]), the “log P*” value is 3.34.

Take `Cc1ccc(-c2ccc(Cl)cc2)c(C)c1C1=C(OC(=O)C(C)C)C2(CCC3(CCCO3)CC2)OC1=O` (stereo not drawn) [Example I-2-b-15]: the “log P*” value in data set [3] (compounds of formula (I-2-b)) is listed as 5.63.

`CCc1cc(Cl)c(C2=C(O)C3(CCC4(CCCO4)CC3)OC2=O)c(Br)c1` (single isomer, unassigned) [Example I-2-a-38]: the “log P*” value in data set [3] (setting [4]) stood at 2.79.

As a reminder, the log P is a log measure of how a compound divides between an organic and an aqueous phase. Read a low log P as lower lipophilicity. As to `CCOC(=O)OC1=C(c2c(C)cc(C)cc2C)C(=O)OC12CCC1(CCCO1)CC2` (stereo not drawn) [Example I-2-c-2], in data set [3] (HPLC, reverse-phase C 18, acidic range (pH 3.4), 55° C.), the log partition coefficient (log P) is listed as 4.69.

Source of the values: patent publication US8859466B2, “Oxaspirocyclic spiro-substituted tetramic acid and tetronic acid derivatives” (Bayer CropScience AG, priority 2007, dated 2014).
